Results taken from US20110071289A1, “AMINOPYRAZOLE AMIDE DERIVATIVE” (DAINIPPON SUMITOMO PHARMA CO., LTD., priority 2007, published 2011).

Tests used:
[1] = test system: cortisone reducing activity of cultured human adipocytes; assay: Inhibitory activity assay for cortisone reducing activity of cultured human adipocytes; assay type: cell-based; details: 100 nM [1,2-3H] cortisone, 37° C. for 3 hours
Description: Normal human proadipocytes (HPrAD-vis, Cambrex) were inoculated on 48 well plate, and differentiated according to a protocol attached to a kit. Media for cells on 9-11th day of differentiation were changed to 0.2 ml of D-MEM media (GIBCO, Inc.) containing 100 nM [1,2-^3H] cortisone (1 μCi/well, Muromati Yakuhin), 0.5% DMSO, test compound (DMSO only for test compound-addition districts and test compound additive-free districts). After incubation at 37° C. for 3 hours, all media were collected. As background districts, cell additive-free media were used. Media were mixed with ethyl acetate (0.1 ml) in Eppendorf tube. The mixture was vortexed, and then centrifuged at 5,000 rpm×1 minute at room temperature to separate ethyl acetate (upper layer). Ethyl acetate (10 μl) was spotted on aluminum plate for thin-layer chromatography (silica gel 60 angstrom, Merck, referred to as TLC plate hereinafter). To a sealed vessel was added chloroform/methanol (90:10, v/v) as an eluent, and TLC plate was developed and then dried at room temperature. To the dried TLC plate was exposed an imaging plate (TR-2040, FUJIFILM) over 16 or more hours. After exposure, the imaging plate was analyzed by Bioimage analyzer (BAS2500, FUJIFILM), and [^3H] radioactivity of the spot corresponding to cortisol on TLC plate was determined Inhibitory activities of cortisone reducing activities of test compounds were calculated as below.
(Inhibitory activity (%))=100×((Test compound additive-free districts)−(Test compound-addition districts))/((Test compound additive-free districts)−(Background districts))
IC50 values were calculated by a linear regression of logarithmic values of analyte concentrations and inhibitory activity values using 2-point data wherein inhibitory activities indicated values around 50%. […] IC50 values for human adipocyte cortisone reducing activities of the following inventive compounds were determined

human 11βHSD1 = target: T1, human 11βHSD1 (Homo sapiens, UniProt P28845); assay: Measurement of human 11βHSD1 inhibitory activity (HTRF cortisol detection); assay type: biochemical; details: human 11βHSD1 enzyme fraction, 20 nM cortisone, 37° C. for 2 hours
T1 construct: made in house; host or cells: CHO-K1 cells stably transfected with pCMV-Tag 2B plasmid; pellet after ultracentrifugation at 100,000 g
Text: A sequence containing ORF of human 11βHSD1 gene (GenBank Accession No. BC012593) was amplified according to PCR technique which was one of conventional methods, and digested by a restriction enzyme BamHI/XhoI. 2 kb of DNA fragments obtained from agarose gels were inserted into pCMV-Tag 2B plasmids (Stratagene) according to a conventional method. The plasmids prepared in Escherichia coli in large amounts were transformed into CHO-K1 cells, and then cells stably expressing human 11βHSD1 genes were selected by medium containing 400 μg/ml G-418 solution (GIBCO, Inc.) containing media. The resulting stably expressing cells were incubated up to −90% confluent in F-12 medium (Nacalai Tesque, Inc.) containing 10% charcoal-dextran treated fetal bovine serum (Hyclone), 1% penicillin-streptomycin (Nacalai Tesque, Inc.) and 400 μg/ml G-418. The resultant cells were treated by tripsin, and the obtained cells were suspended in the above media (1 L) and seeded in cell stack 10 chamber (Corning) in total amounts. The mixture was incubated in CO2 incubator (5% CO2, 37° C.) for 4-5 days, and then treated by tripsin. Total amounts of the obtained cells were washed with PBS buffer (GIBCO, Inc.), and stored at −80° C. […]
A test compound and cortisone (Sigma) was diluted with buffer (50 mM HEPES pH7.3, 150 mM NaCl, 1 mM EDTA) to prepare a substrate solution containing a test compound (50 mM HEPES pH7.3, 150 mM NaCl, 1 mM EDTA, 1 mM NADPH, 20 nM cortisone) (2% DMSO solution), and the solution was added to 384-well low-volume plate (manufactured by Greiner, No. 3782086) in 4 μl/well. […] After the enzyme reaction, the produced cortisol was detected by Homogeneous time-resolved fluorescence (HTRF) to determine enzyme inhibitory activities. […] A fluorescence intensity was determined by 2120 EnVision® Multilabel counter (PerkinElmer) to calculate enzyme inhibitory activities from 2 wavelengths of fluorescence intensity ratios (665 nm/620 nm).
Each inhibitory activity (%) of each test compound was calculated from the average value (%) of inhibitory activities of 4 wells under the same condition. […]

T1 sequence (P28845 whole entry): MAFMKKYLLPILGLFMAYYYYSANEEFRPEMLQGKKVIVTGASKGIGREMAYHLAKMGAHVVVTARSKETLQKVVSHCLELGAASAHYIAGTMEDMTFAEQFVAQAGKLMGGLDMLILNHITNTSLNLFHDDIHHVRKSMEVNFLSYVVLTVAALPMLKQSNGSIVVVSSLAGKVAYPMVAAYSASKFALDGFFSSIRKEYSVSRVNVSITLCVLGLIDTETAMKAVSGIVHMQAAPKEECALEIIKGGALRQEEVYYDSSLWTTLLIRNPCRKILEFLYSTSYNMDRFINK

Compound | IC50 ([1]; Adipocyte) [nM] | IC50 (human 11βHSD1) [nM] | also measured
CC(C)N(C)c1cc(C(=O)N[C@H]2C3CC4CC2C[C@](C(N)=O)(C4)C3)nn1C [Example 8, N-[(E)-5-Carbamoyladamantan-2-yl]-5-[isopropyl(methyl)amino]-1-methyl-1H-pyrazole-3-carboxamide] | 8.7 | – | –
CN(C)c1c(Cl)c(C(=O)N[C@H]2C3CC4CC2C[C@](C(N)=O)(C4)C3)nn1C [Example 11, N-[(E)-5-Carbamoyladamantan-2-yl]-4-chloro-5-(dimethylamino)-1-methyl-1H-pyrazole-3-carboxamide] | – | 32 | –
CN(CC1CC1)c1cc(C(=O)N[C@H]2C3CC4CC2C[C@](C(N)=O)(C4)C3)nn1C [Example 15, N-[(E)-5-Carbamoyladamantan-2-yl]-5-[(cyclopropylmethyl)(methyl)amino]-1-methyl-1H-pyrazole-3-carboxamide] | – | 39 | –
CN(c1cc(C(=O)N[C@H]2C3CC4CC2C[C@](C(N)=O)(C4)C3)nn1C)C1CCC1 [Example 19, N-[(E)-5-Carbamoyladamantan-2-yl]-5-[cyclobutyl(methyl)amino]-1-methyl-1H-pyrazole-3-carboxamide] | – | 25 | –
COc1ccc(C2(N(C)c3c(Cl)c(C(=O)NC4C5CC6CC4CC(C(N)=O)(C6)C5)nn3C)CC2)cc1 (stereo not drawn) [Example 22, N-[(E)-5-(Aminocarbonyl)-2-adamantyl]-4-chloro-5-[[1-(4-methoxyphenyl)cyclopropyl](methyl)amino]-1-methyl-1H-pyrazole-3-carboxamide] | – | – | IC50 [1]: 1.8 nM
CN(CC1CCN(c2ccc(C#N)cn2)CC1)c1c(Cl)c(C(=O)N[C@H]2C3CC4CC2C[C@](O)(C4)C3)nn1C [Example 166, 4-Chloro-5-[{[1-(5-cyanopyridin-2-yl)piperidin-4-yl]methyl}(methyl)amino]-N-[(E)-5-hydroxy-2-adamantyl]-1-methyl-1H-pyrazole-3-carboxamide] | 6.4 | – | –
